≈ marks a conversion by molar mass, not a printed value. Where “and” joins values, the source holds several entries; their conditions need not be identical. Equal entries are not always repeated. Where two headings read alike, the source gives them in different places.
Legend:
Human CYP17A1 = Human CYP17A1 (Homo sapiens (Human), UniProt P05093); assay: Inhibition of CYP17A1 (recombinant enzyme, progesterone hydroxylation, HPLC radio detection); assay type: biochemical; details: for IC50: read-out: IC50 ± SD CYP17
Sequence of Human CYP17A1 (P05093 whole entry): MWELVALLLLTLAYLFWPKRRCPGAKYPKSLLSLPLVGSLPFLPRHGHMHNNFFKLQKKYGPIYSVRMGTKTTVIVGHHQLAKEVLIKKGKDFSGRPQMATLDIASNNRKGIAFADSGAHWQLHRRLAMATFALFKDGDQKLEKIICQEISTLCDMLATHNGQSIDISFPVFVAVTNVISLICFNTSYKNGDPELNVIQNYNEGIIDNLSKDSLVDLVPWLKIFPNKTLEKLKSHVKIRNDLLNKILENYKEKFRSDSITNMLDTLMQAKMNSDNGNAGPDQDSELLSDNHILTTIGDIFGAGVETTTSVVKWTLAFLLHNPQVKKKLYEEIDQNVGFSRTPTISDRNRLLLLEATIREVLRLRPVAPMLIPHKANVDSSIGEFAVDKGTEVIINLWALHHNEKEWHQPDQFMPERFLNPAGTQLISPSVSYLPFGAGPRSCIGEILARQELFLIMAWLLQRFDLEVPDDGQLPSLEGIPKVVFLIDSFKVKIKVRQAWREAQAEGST
Method: The inhibition of CYP17A1 by the test compounds was evaluated using a recombinant enzyme. Human CYP17A1 was expressed in E. coli (Ehmer, P. B. et al.; J. Steroid Biochem. Mol. Biol., 75, 57-63 (2000)). The microsomal fraction and 140 μL of phosphate buffer (50 mM Na phosphate, 1 mM MgCl2, 0.1 mM EDTA, 0.1 mM dithiothreitol, pH 7.4) were preincubated separately with a mixture of progesterone (24.95 μM) and ^3H-progesterone (0.05 μM, 101.3 Ci/mmol), […] of an NADPH regeneration system (in phosphate buffer with 10 mM NADP+, 100 mM glucose 6-phosphate and 2.5 U of glucose 6-phosphate dehydrogenase) and the appropriate test substances (in 5 μl of DMSO) at 37° C. for 5 minutes. The reaction was started by addition of the enzyme and, after 30 minutes of incubation at 37° C., stopped by addition of 50 μl of 1N hydrochloric acid.
The steroids were extracted with ethyl acetate. After evaporation of the organic phase, the steroids were taken up in acetonitrile. 16α-Hydroxyprogesterone, 17α-hydroxyprogesterone and progesterone were separated using acetonitrile/water (45:55) as mobile phase on a C18 reverse-phase chromatography column (Nucleodur C18 Gravity, 3 μm, Macherey-Nagel, Düren, Germany) on an HPLC system (Agilent 1100 Series, Agilent Technologies, Waldbronn, Germany). Detection and quantification of the steroids was carried out using a radio flow detector (Berthold Technologies, Bad Wildbad, Germany). The inhibition was calculated using the formula below: […]
Each value was calculated from at least three independent experiments. The final IC50 value was calculated as the mean of 3 or 4 independent IC50 values.

recombinant human AKR1C3 = recombinant human AKR1C3 (Homo sapiens (Human), UniProt P42330); assay: AKR1C3 enzyme inhibition assay (Coumberone to Coumberol fluorescence); assay type: biochemical; details: individual experimental determinations
Sequence of recombinant human AKR1C3 (P42330 whole entry): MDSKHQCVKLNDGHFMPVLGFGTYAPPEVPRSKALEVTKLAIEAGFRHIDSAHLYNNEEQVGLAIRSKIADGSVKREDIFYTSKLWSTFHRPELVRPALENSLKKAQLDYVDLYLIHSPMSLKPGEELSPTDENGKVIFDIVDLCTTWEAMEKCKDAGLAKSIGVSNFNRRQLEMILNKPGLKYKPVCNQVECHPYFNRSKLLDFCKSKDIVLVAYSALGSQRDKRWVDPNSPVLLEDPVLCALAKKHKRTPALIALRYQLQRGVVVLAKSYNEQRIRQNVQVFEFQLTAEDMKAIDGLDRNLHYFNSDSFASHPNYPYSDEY
Method: The AKR1C3-inhibitory activity of the substances of the present invention was measured in the AKR1C3 assay described in the paragraphs below.
Essentially, the enzyme activity is measured by quantification of the Coumberol from Coumberone (Halim, M., Yee, D. J., and Sames, D., J. AM. CHEM. SOC. 130, 14123-14128 (2008) and Yee, D. J., Balsanek, V., Bauman, D. R., Penning, T. M., and Sames, D., Proc. Natl. Acad. Sci. USA 103, 13304-13309 (2006)). In this test, the increase of the highly fluorescent Coumberol by NADPH—(nicotinamide adenine dinucleotide phosphate)-dependent reduction of the non-fluorescent Coumberone by AKR1C3 can be determined.
The enzyme used was recombinant human AKR1C3 (Aldo-keto reductase family 1 member C3) (GenBank Accession No. NM_003739). This was expressed in E. coli as GST (glutathione S transferase) fusion protein and purified by glutathione Sepharose affinity chromatography. The GST was removed by digestion with thrombin and subsequent size exclusion chromatography (Dufort, I., Rheault, P., Huang, X F., Soucy, P., and Luu-The, V., Endocrinology 140, 568-574 (1999)).
For the assay, 50 nl of a 100-fold concentrated solution of the test substance in DMSO were pipetted into a black low-volume 384-well microtiter plate (Greiner Bio-One, Frickenhausen, Germany), 2.0 μl of a solution of AKR1C3 in assay buffer [50 mM potassium phosphate buffer pH 7, 1 mM DTT, 0.0022% (w/v) Pluronic F-127, 0.01% BSA (w/v) and protease inhibitor cocktail (Complete, EDTA-free Protease Inhibitor Cocktail from Roche)] were added and the mixture was incubated for 15 min to allow pre-binding of the substances to the enzyme prior to the enzyme reaction. The enzyme reaction was then started by addition of 3 μl of a solution of NADPH (16.7 μM→final concentration in 5 μl of assay volume is 10 μM) and Coumberone (0.5 μM→final concentration in 5 μl of assay volume is 0.3 μM) in assay buffer, and the resulting mixture was incubated at 22° C. for the reaction time of 90 min. The concentration of the AKR1C3 was adapted to the respective activity of the enzyme preparation and adjusted such that the assay was carried out in the linear range. Typical concentrations were in the region of 1 nM. The reaction was stopped by addition of 5 μl of a stop solution consisting of the inhibitor EM-1404 [F. Labrie et al. U.S. Pat. No. 6,541,463, 2003] (2 μM→final concentration in […] is 1 μM). The fluorescence of the Coumberole was then measured at 520 nm (excitation at 380 nm) using a suitable measuring instrument (Pherastar from BMG Labtechnologies). The intensity of the fluorescence was used as a measure of the amount of Coumberole formed and thus of the enzyme activity of AKR1C3. The data were normalized (enzyme reaction without inhibitor=0% inhibition; all other assay components, but no enzyme=100% inhibition).

[1] = Thermodynamic solubility in aqueous buffer pH 6.5 (shake-flask method); assay type: physicochemical; details: thermodynamic from solid
Method: Determination of the Thermodynamic Solubility in Aqueous Buffer pH 6.5 (Shake-Flask Method)
The thermodynamic solubility was determined according to the shake-flask method [literature: Edward H. Kerns and Li Di (2008) Solubility Methods in: Drug-like Properties: Concepts, Structure Design and Methods, p 276-286. Burlington, Mass., Academic Press].
Here, a saturated solution of the active compound in buffer pH 6.5 was prepared and stirred for 24 h to ensure that an equilibrium between the solid and the substance in solution had formed. The solution was then centrifuged, and the concentration of the solution obtained was quantified with the aid of a calibration line.
For the sample, 2 mg of solid substance were weighed out accurately into a 4 ml glass bottle. 1 ml of phosphate buffer pH 6.5 was added. This solution was stirred on a stirrer at room temperature for 24 h. The solution was then centrifuged. To prepare the comparison for the calibration, 2 mg of solid substance were weighed out accurately and dissolved in 30 ml of acetonitrile. After a short ultrasound treatment, the solution was diluted with water to 50 ml.
Sample and comparison were quantified using HPLC with UV detection. […]
The areas of the sample and comparison injections and the calculation of the solubility (in mg/l) were determined using the HPLC software (Waters Empower 2 FR).

[2] = human CYP17A1 expressed in E. coli, mean of 3 or 4 independent IC50 values

Which “IC50 ± SD CYP17” value (Human CYP17A1; [2]) does the source give for `C[C@]12CC[C@@H]3c4ccc(C(=O)NCCC(=O)O)cc4CC[C@H]3[C@@H]1CC=C2c1cncc(F)c1` [Example 9, N-{[17-(5-Fluoropyridin-3-yl)estra-1,3,5(10),16-tetraen-3-yl]carbonyl}-β-alanine] here?
The value was “No inhibition”.

What about the IC50 (recombinant human AKR1C3) of the same compound?
The IC50 was 8.3 nM and 8.9 nM (2×).

For `CC1(C)CC[C@@]2(CC[C@H]3[C@@H]4CCc5cc(C(N)=O)ccc5[C@H]4CC[C@@]32C)OC1=O` [EM-1404, reference compound], which solubility at 24 h ([1]; aqueous buffer, phosphate buffer pH 6.5, room temperature, 24 h, shake-flask, read-out: solubility) is on record?
Its solubility at 24 h is 0.1 µg/mL (≈ 0.253 µM).

Which IC50 (Human CYP17A1; [2]) does the source give for `C[C@]12CC[C@H](O)CC1=CC[C@@H]1[C@@H]2CC[C@]2(C)C(c3cccnc3)=CC[C@@H]12` [Abiraterone, abiraterone, reference compound] here?
Its IC50 is 29 ± 4 nM.

Which IC50 (Human CYP17A1; [2]) does the source give for `CC(C)(CNC(=O)c1ccc2c(c1)CC[C@@H]1[C@@H]2CC[C@]2(C)C(c3cncc(F)c3)=CC[C@@H]12)C(=O)O` [Example 5, 3-({[17-(5-Fluoropyridin-3-yl)estra-1,3,5(10),16-tetraen-3-yl]carbonyl}amino)-2,2-dimethylpropanoic acid] here?
Its IC50 is 85500 ± 7700 nM.

What about the IC50 (recombinant human AKR1C3) of the same compound?
The IC50 was 9.1 nM and 8 nM and 4.3 nM and 3.6 nM.

Which “% Inhibition at a concentration of 200 μM substance” value (Human CYP17A1; human CYP17, 200 μM substance) does the source give for `CN(CCC(=O)O)C(=O)c1ccc2c(c1)CC[C@@H]1[C@@H]2CC[C@]2(C)C(c3cncc(F)c3)=CC[C@@H]12` [Example 2, N-{[17-(5-Fluoropyridin-3-yl)estra-1,3,5(10),16-tetraen-3-yl]carbonyl}-N-methyl-β-alanine] here?
The value was 49%.

What about the IC50 (Human CYP17A1; [2]) of the same compound?
The IC50 was ~200000 nM.

And the IC50 (recombinant human AKR1C3)?
Its IC50 is 1.3 nM and 1.4 nM.

What about the solubility at 24 h ([1]; pH 6.5, aqueous buffer) of the same compound?
The solubility at 24 h was 354 µg/mL (≈ 765 µM).

Which IC50 (Human CYP17A1; [2]) does the source give for `C[C@]12CC[C@@H]3c4ccc(C(=O)NCC(=O)O)cc4CC[C@H]3[C@@H]1CC=C2c1cncc(F)c1` [Example 10, N-{[17-(5-Fluoropyridin-3-yl)estra-1,3,5(10),16-tetraen-3-yl]carbonyl}glycine] here?
The IC50 was 15200 ± 1580 nM.

And the IC50 (recombinant human AKR1C3)?
Its IC50 is 4.9 nM and 7.3 nM.

From US9487554B2, “Estra-1,3,5(10),16-tetraene-3-carboxamide derivatives, processes for their preparation, pharmaceutical preparations comprising them and their use for preparing medicaments” (BAYER INTELLECTUAL PROPERTY GmbH, priority 2011, dated 2016)
